# Test system: Lactobacillus plantarum - clinical strain
# Assay: Determination of the MIC value of totarol, broth dilution in 96-well plates with OD and quantitative culture
# Assay type: cell-based
# Conditions: for OD, average of 3 measurements / OD: 620 nm
# Experimental: Test of antibacterial activity of totarol using DMI (dimethylisosorbide) as a solvent.
# A suspension of 0.5 McF in physiological saline (suspension density 10^8 cfu/ml) was prepared from a 24-hour culture of a standard strain. 1 ml of the suspension was collected to 9 ml of a TSB broth ([…]). Suspensions with a dilution of 10^−6 were prepared in the described way. A suspension with a cell density of 10^5 cfu/ml was selected for further investigations. For each strain, 2 96-well plates were prepared: the first one was intended for the OD measurement, the second one—for quantitative culture on solid media. • A/ to wells B1-D1, B2-D2 and B-D 4-11, 100 µl of the broth were added; • B/ to wells B3-D3, 200 µl of the broth were added; • C/ to wells B1-D1, 1 µl of stock I was added; • D/ to wells B2-D2, 1 µl of stock II was added; • E/ to wells B3-D3, 2 µl of stock III were added. Using a multichannel pipette, 100 µl of the sample were collected from each of the B3-D3 wells and placed in wells B4-D4 (mixing by sucking the content in and letting it out for 5 times). The pipette tips were replaced and 100 µl of the content were collected from of the B4-D4 wells, and placed in wells B5-D5, mixing as previously. These operations were repeated through the wells B11-D11. The content in the B11-D11 wells was mixed, and 100 µl of the fluid were collected and discarded. This way, a series of dilutions of totarol samples in DMI in the range of 0.32% to 0.0004% was obtained. Then, 100 µl of a corresponding bacterial culture were added to the wells B, C, D 1-11. In consequence, a change in the final concentration range occurred, to 0.16%-0.0002%. Control Preparation: • Negative control: 100 µl of the broth+1 pl DMI were added to the Al well. • Positive control (I): 100 µl of the broth with the bacterial culture were added to the wells E1-G1. • Diluent positive control (II): 100 µl of the broth with the bacterial culture+1 pl DMI were added to the wells E2-G2. The OD value in the individual wells was read at the wavelength of 620 nm (read time 0). From the second 96-well plate, a culture was inoculated by a quantitative method from every dilution onto a well with a proper solid medium, and incubated for 24 h at 37° C. under aerobic or anaerobic conditions, depending on the strain. The plates were incubated under aerobic conditions or in an atmosphere of an elevated CO2 concentration (for the strains requiring it) in an incubator at 37° C. The OD was read after 8 h, 16 h, and 24 h, respectively. Before every OD measurement, the contents of the wells were mixed delicately. In parallel to the OD readout, cultures we inoculated from the second 96-well plate, from every dilution, into plates with a proper solid medium, and incubated for 24 h at 37° C., under aerobic or anaerobic conditions. For the analysis of the experimental results, an average value of the OD measurement obtained from three repetitions in the individual times (0, 8, 16, and 24 h) for the individual microbes (Gardnerella vaginalis, Streptococcus agalactiae, Enterococcus faecalis, Lactobacillus gasseri/plantarum) was taken. Additionally, the number of bacteria grown on solid media was taken into account. The results of the tests confirm the specific, concentration-dependent selectiveness, and the high antibacterial effectiveness of totarol against the pathogenic microorganisms: Gardnerella vaginalis, Streptococcus agalactiae, Enterococcus faecalis at low MIC values safe for bacteria of the Lactobacillus genus.
smiles,measurement,setting,value
"CC(C)c1c(O)ccc2c1CC[C@H]1C(C)(C)CCC[C@]21C [Totarol, totarol]",MIC value,L. plantarum,0.08%
same,viable count by quantitative culture (cfu/ml),"totarol 0.0002%, 0 h",3.9 × 10^5 cfu/ml
same,"OD, average of 3 measurements","totarol 0.0002%, 0 h",0.291
same,viable count by quantitative culture (cfu/ml),"totarol 0.0002%, 8 h",3.5 × 10^5 cfu/ml
same,"OD, average of 3 measurements","totarol 0.0002%, 8 h",0.305
same,viable count by quantitative culture (cfu/ml),"totarol 0.0002%, 16 h",4.2 × 10^6 cfu/ml
same,"OD, average of 3 measurements","totarol 0.0002%, 16 h",0.854
same,viable count by quantitative culture (cfu/ml),"totarol 0.0002%, 24 h",2.9 × 10^7 cfu/ml
same,OD,"totarol 0.0002%, 24 h",1.469
same,viable count by quantitative culture (cfu/ml),"totarol 0.0004%, 0 h",2.1 × 10^5 cfu/ml
same,"OD, average of 3 measurements","totarol 0.0004%, 0 h",0.304
same,viable count by quantitative culture (cfu/ml),"totarol 0.0004%, 8 h",2 × 10^5 cfu/ml
same,"OD, average of 3 measurements","totarol 0.0004%, 8 h",0.309
same,viable count by quantitative culture (cfu/ml),"totarol 0.0004%, 16 h",3.9 × 10^6 cfu/ml
same,"OD, average of 3 measurements","totarol 0.0004%, 16 h",0.892
same,viable count by quantitative culture (cfu/ml),"totarol 0.0004%, 24 h",3.1 × 10^7 cfu/ml
same,OD,"totarol 0.0004%, 24 h",1.508
same,viable count by quantitative culture (cfu/ml),"totarol 0.0007%, 0 h",6.5 × 10^5 cfu/ml
same,"OD, average of 3 measurements","totarol 0.0007%, 0 h",0.292
same,viable count by quantitative culture (cfu/ml),"totarol 0.0007%, 8 h",4.5 × 10^5 cfu/ml
same,"OD, average of 3 measurements","totarol 0.0007%, 8 h",0.300
same,viable count by quantitative culture (cfu/ml),"totarol 0.0007%, 16 h",8.1 × 10^6 cfu/ml
same,"OD, average of 3 measurements","totarol 0.0007%, 16 h",0.902
same,viable count by quantitative culture (cfu/ml),"totarol 0.0007%, 24 h",5.1 × 10^7 cfu/ml
same,OD,"totarol 0.0007%, 24 h",1.504
same,viable count by quantitative culture (cfu/ml),"totarol 0.0013%, 0 h",3.8 × 10^5 cfu/ml
same,"OD, average of 3 measurements","totarol 0.0013%, 0 h",0.293
same,viable count by quantitative culture (cfu/ml),"totarol 0.0013%, 8 h",3.2 × 10^5 cfu/ml
same,"OD, average of 3 measurements","totarol 0.0013%, 8 h",0.305
same,viable count by quantitative culture (cfu/ml),"totarol 0.0013%, 16 h",5.1 × 10^6 cfu/ml
same,"OD, average of 3 measurements","totarol 0.0013%, 16 h",0.913
same,viable count by quantitative culture (cfu/ml),"totarol 0.0013%, 24 h",4.1 × 10^7 cfu/ml
same,OD,"totarol 0.0013%, 24 h",1.521
same,viable count by quantitative culture (cfu/ml),"totarol 0.0025%, 0 h",2.8 × 10^5 cfu/ml
same,"OD, average of 3 measurements","totarol 0.0025%, 0 h",0.284
same,viable count by quantitative culture (cfu/ml),"totarol 0.0025%, 8 h",1.0 × 10^5 cfu/ml
same,"OD, average of 3 measurements","totarol 0.0025%, 8 h",0.303
same,viable count by quantitative culture (cfu/ml),"totarol 0.0025%, 16 h",8.4 × 10^6 cfu/ml
same,"OD, average of 3 measurements","totarol 0.0025%, 16 h",0.914
same,viable count by quantitative culture (cfu/ml),"totarol 0.0025%, 24 h",1.4 × 10^7 cfu/ml
same,OD,"totarol 0.0025%, 24 h",1.552
same,viable count by quantitative culture (cfu/ml),"totarol 0.005%, 0 h",4.2 × 10^5 cfu/ml
same,"OD, average of 3 measurements","totarol 0.005%, 0 h",0.288
same,viable count by quantitative culture (cfu/ml),"totarol 0.005%, 8 h",1.2 × 10^5 cfu/ml
same,"OD, average of 3 measurements","totarol 0.005%, 8 h",0.300
same,viable count by quantitative culture (cfu/ml),"totarol 0.005%, 16 h",1.8 × 10^6 cfu/ml
same,"OD, average of 3 measurements","totarol 0.005%, 16 h",0.895
same,viable count by quantitative culture (cfu/ml),"totarol 0.005%, 24 h",3.8 × 10^7 cfu/ml
same,OD,"totarol 0.005%, 24 h",1.476
same,viable count by quantitative culture (cfu/ml),"totarol 0.01%, 0 h",5.5 × 10^5 cfu/ml
same,"OD, average of 3 measurements","totarol 0.01%, 0 h",0.295
same,viable count by quantitative culture (cfu/ml),"totarol 0.01%, 8 h",5 × 10^5 cfu/ml
same,"OD, average of 3 measurements","totarol 0.01%, 8 h",0.298
same,viable count by quantitative culture (cfu/ml),"totarol 0.01%, 16 h",6.4 × 10^6 cfu/ml
same,"OD, average of 3 measurements","totarol 0.01%, 16 h",0.871
same,viable count by quantitative culture (cfu/ml),"totarol 0.01%, 24 h",3.4 × 10^7 cfu/ml
same,OD,"totarol 0.01%, 24 h",1.445
same,viable count by quantitative culture (cfu/ml),"totarol 0.02%, 0 h",7.5 × 10^5 cfu/ml
same,"OD, average of 3 measurements","totarol 0.02%, 0 h",0.330
same,viable count by quantitative culture (cfu/ml),"totarol 0.02%, 8 h",1.0 × 10^5 cfu/ml
same,"OD, average of 3 measurements","totarol 0.02%, 8 h",0.299
same,viable count by quantitative culture (cfu/ml),"totarol 0.02%, 16 h",5.1 × 10^6 cfu/ml
same,"OD, average of 3 measurements","totarol 0.02%, 16 h",0.837
same,viable count by quantitative culture (cfu/ml),"totarol 0.02%, 24 h",3.1 × 10^7 cfu/ml
same,OD,"totarol 0.02%, 24 h",1.375
same,viable count by quantitative culture (cfu/ml),"totarol 0.04%, 0 h",2.6 × 10^5 cfu/ml
same,"OD, average of 3 measurements","totarol 0.04%, 0 h",0.398
same,viable count by quantitative culture (cfu/ml),"totarol 0.04%, 8 h",1.6 × 10^5 cfu/ml
same,"OD, average of 3 measurements","totarol 0.04%, 8 h",0.370
same,viable count by quantitative culture (cfu/ml),"totarol 0.04%, 16 h",2.4 × 10^5 cfu/ml
same,"OD, average of 3 measurements","totarol 0.04%, 16 h",0.379
same,viable count by quantitative culture (cfu/ml),"totarol 0.04%, 24 h",2.4 × 10^5 cfu/ml
same,OD,"totarol 0.04%, 24 h",0.397
same,viable count by quantitative culture (cfu/ml),"totarol 0.08%, 0 h",3.2 × 10^5 cfu/ml
same,"OD, average of 3 measurements","totarol 0.08%, 0 h",0.401
same,viable count by quantitative culture (cfu/ml),"totarol 0.08%, 8 h",1.2 × 10^4 cfu/ml
same,"OD, average of 3 measurements","totarol 0.08%, 8 h",0.413
same,viable count by quantitative culture (cfu/ml),"totarol 0.08%, 16 h",3.5 × 10^4 cfu/ml
same,"OD, average of 3 measurements","totarol 0.08%, 16 h",0.368
same,viable count by quantitative culture (cfu/ml),"totarol 0.08%, 24 h",5 × 10^4 cfu/ml
same,OD,"totarol 0.08%, 24 h",0.357
same,viable count by quantitative culture (cfu/ml),"totarol 0.16%, 0 h",3.7 × 10^5 cfu/ml
same,"OD, average of 3 measurements","totarol 0.16%, 0 h",0.472
same,viable count by quantitative culture (cfu/ml),"totarol 0.16%, 8 h",4 × 10^4 cfu/ml
same,"OD, average of 3 measurements","totarol 0.16%, 8 h",0.320
same,viable count by quantitative culture (cfu/ml),"totarol 0.16%, 16 h",7.1 × 10^4 cfu/ml
same,"OD, average of 3 measurements","totarol 0.16%, 16 h",0.346
same,viable count by quantitative culture (cfu/ml),"totarol 0.16%, 24 h",4.1 × 10^4 cfu/ml
same,OD,"totarol 0.16%, 24 h",0.371

# Source: patent publication US11534412B2, “Application of totarol and pharmaceutical composition containing totarol” (Emergopharm SP. Z O.O. SP.K., priority 2017, dated 2022)
